Measured values reported in ChEMBL document CHEMBL5500356, “Design, synthesis, and biological evaluation of novel benzimidazole derivatives as anti-cervical cancer agents through PI3K/Akt/mTOR pathway and tubulin inhibition” (Eur J Med Chem, 2024).
The source made the active and inactive calls. The calls are words filed in the database; no cut-off is given here.

Tests used:
[1] = system: SiHa; assay: Antiproliferative activity against human SiHa cells assessed as cell viability incubated for 48 hrs by MTT assay; format: functional, cell-based
[2] = Cytotoxicity against human L02 cells assessed as cell viability incubated for 48 hrs by MTT assay; format: toxicity, cell-based
[3] = system: HeLa; assay: Antiproliferative activity against human HeLa cells assessed as cell viability incubated for 48 hrs by MTT assay; format: functional, cell-based
[4] = system: Ca-Ski; assay: Antiproliferative activity against human Ca-Ski cells assessed as cell viability incubated for 48 hrs by MTT assay; format: functional, cell-based
[5] = Cytotoxicity against human HEK293T cells assessed as cell viability incubated for 48 hrs by MTT assay; format: toxicity, cell-based, HEK-293T
[6] = target: T1, Tubulin (Homo sapiens) (UniProt P68371+Q9H4B7+P0DPH7+P68366+Q13509+Q71U36+P04350+Q3ZCM7+P07437+P68363+Q9BQE3+Q6PEY2+Q13885+Q9BVA1+Q9BUF5); assay: Inhibition of tubulin polymerization in human SiHa cells incubated for 24 hrs by DAPI fluorescence staining assay; format: cell-based; conditions: dose 4-16 µM
[7] = Acute toxicity in AB-wild type zebrafish embryo assessed as mortalities at 25 uM measured after 96 hrs; set-up: species or system Danio rerio; conditions: in vivo, read-out: Activity
[8] = system: SiHa; assay: Induction of cell cycle arrest in human SiHa cells assessed as accumulation cells at G2/M phase at 4 uM measured after 24 hrs by flow cytometry (reference value: 5.24%); format: functional
[9] = Acute toxicity in AB-wild type zebrafish embryo assessed as malformation rate at 50 uM measured after 96 hrs; set-up: species or system Danio rerio; conditions: in vivo
[10] = Acute toxicity in AB-wild type zebrafish embryo assessed as malformation rate at 100 uM measured after 96 hrs; set-up: species or system Danio rerio; conditions: in vivo
[11] = system: SiHa; assay: Effect on Akt protein expression in human SiHa cells at 4 to 16 uM incubated for 24 hrs by Western blot analysis; format: functional, cell-based; conditions: dose 4-16 µM
[12] = target: Serine/threonine-protein kinase mTOR (Homo sapiens) (UniProt P42345); assay: Inhibition of mTOR phosphorylation in human SiHa cells at 4 to 16 uM incubated for 24 hrs by Western blot analysis; format: cell-based; conditions: dose 4-16 µM
[13] = system: SiHa; assay: Effect on mTOR protein expression in human SiHa cells at 4 to 16 uM incubated for 24 hrs by Western blot analysis; format: functional, cell-based; conditions: dose 4-16 µM
[14] = system: SiHa; assay: Induction of cell cycle arrest in human SiHa cells assessed as accumulation cells at G0/G1 phase at 8 uM measured after 24 hrs by flow cytometry (reference value: 80.45%); format: functional
[15] = Acute toxicity in AB-wild type zebrafish embryo assessed as malformation rate at 12.5 uM measured after 96 hrs; set-up: species or system Danio rerio; conditions: in vivo
[16] = Acute toxicity in AB-wild type zebrafish embryo assessed as mortalities at 200 uM measured after 96 hrs; set-up: species or system Danio rerio; conditions: in vivo, read-out: Activity
[17] = Acute toxicity in AB-wild type zebrafish embryo assessed as mortalities at 12.5 uM measured after 96 hrs; set-up: species or system Danio rerio; conditions: in vivo, read-out: Activity
[18] = system: SiHa; assay: Induction of cell cycle arrest in human SiHa cells assessed as accumulation cells at S phase at 16 uM measured after 24 hrs by flow cytometry (reference value: 14.31%); format: functional
[19] = system: SiHa; assay: Induction of apoptosis in human SiHa cells assessed as early apoptotic cells at 8 uM incubated for 24 hr by flow cytometry based annexin V-FITC/PI double-staining analysis (reference value: 2.95%); format: functional
[20] = system: SiHa; assay: Induction of cell cycle arrest in human SiHa cells assessed as accumulation cells at G0/G1 phase at 4 uM measured after 24 hrs by flow cytometry (reference value: 80.45%); format: functional
[21] = Acute toxicity in AB-wild type zebrafish embryo assessed as mortalities at 400 uM measured after 96 hrs; set-up: species or system Danio rerio; conditions: in vivo, read-out: Activity
[22] = system: SiHa; assay: Induction of apoptosis in human SiHa cells assessed as late apoptotic cells at 8 uM incubated for 24 hr by flow cytometry based annexin V-FITC/PI double-staining analysis (reference value: 8.67%); format: functional
[23] = system: SiHa; assay: Induction of apoptosis in human SiHa cells assessed as early apoptotic cells at 16 uM incubated for 24 hr by flow cytometry based annexin V-FITC/PI double-staining analysis (reference value: 2.95%); format: functional
[24] = target: RAC-alpha serine/threonine-protein kinase (Homo sapiens) (UniProt P31749); assay: Inhibition of Akt phosphorylation in human SiHa cells at 4 to 16 uM incubated for 24 hrs by Western blot analysis; format: cell-based; conditions: dose 4-16 µM
[25] = Acute toxicity in AB-wild type zebrafish embryo assessed as malformation rate at 400 uM measured after 96 hrs; set-up: species or system Danio rerio; conditions: in vivo
[26] = target: T1, Tubulin (Homo sapiens); assay: Inhibition of tubulin formation in human SiHa cells incubated for 24 hrs by Western blot analysis; format: cell-based
[27] = system: SiHa; assay: Effect on PI3K protein expression in human SiHa cells at 4 to 16 uM incubated for 24 hrs by Western blot analysis; format: functional, cell-based; conditions: dose 4-16 µM
[28] = Acute toxicity in AB-wild type zebrafish embryo assessed as mortalities at 100 uM measured after 96 hrs; set-up: species or system Danio rerio; conditions: in vivo, read-out: Activity
[29] = Acute toxicity in AB-wild type zebrafish embryo assessed as malformation rate at 25 uM measured after 96 hrs; set-up: species or system Danio rerio; conditions: in vivo
[30] = system: SiHa; assay: Induction of cell cycle arrest in human SiHa cells assessed as accumulation cells at G2/M phase at 8 uM measured after 24 hrs by flow cytometry (reference value: 5.24%); format: functional
[31] = system: SiHa; assay: Induction of cell cycle arrest in human SiHa cells assessed as accumulation cells at G0/G1 phase at 16 uM measured after 24 hrs by flow cytometry (reference value: 80.45%); format: functional
[32] = system: SiHa; assay: Induction of apoptosis in human SiHa cells assessed as early apoptotic cells at 4 uM incubated for 24 hr by flow cytometry based annexin V-FITC/PI double-staining analysis (reference value: 2.95%); format: functional
[33] = system: SiHa; assay: Induction of apoptosis in human SiHa cells assessed as late apoptotic cells at 4 uM incubated for 24 hr by flow cytometry based annexin V-FITC/PI double-staining analysis (reference value: 8.67%); format: functional
[34] = Acute toxicity in AB-wild type zebrafish embryo assessed as malformation rate at 200 uM measured after 96 hrs; set-up: species or system Danio rerio; conditions: in vivo
[35] = system: SiHa; assay: Inhibition of PI3K phosphorylation in human SiHa cells at 4 to 16 uM incubated for 24 hrs by Western blot analysis; format: cell-based; conditions: dose 4-16 µM
[36] = system: SiHa; assay: Induction of cell cycle arrest in human SiHa cells assessed as accumulation cells at S phase at 8 uM measured after 24 hrs by flow cytometry (reference value: 14.31%); format: functional
[37] = system: SiHa; assay: Induction of cell cycle arrest in human SiHa cells assessed as accumulation cells at S phase at 4 uM measured after 24 hrs by flow cytometry (reference value: 14.31%); format: functional
[38] = Acute toxicity in AB-wild type zebrafish embryo assessed as mortalities at 50 uM measured after 96 hrs; set-up: species or system Danio rerio; conditions: in vivo, read-out: Activity
[39] = system: SiHa; assay: Induction of apoptosis in human SiHa cells assessed as late apoptotic cells at 16 uM incubated for 24 hr by flow cytometry based annexin V-FITC/PI double-staining analysis (reference value: 8.67%); format: functional
[40] = system: SiHa; assay: Induction of cell cycle arrest in human SiHa cells assessed as accumulation cells at G2/M phase at 16 uM measured after 24 hrs by flow cytometry (reference value: 5.24%); format: functional

Chain of RAC-alpha serine/threonine-protein kinase (Homo sapiens) (P31749 whole entry): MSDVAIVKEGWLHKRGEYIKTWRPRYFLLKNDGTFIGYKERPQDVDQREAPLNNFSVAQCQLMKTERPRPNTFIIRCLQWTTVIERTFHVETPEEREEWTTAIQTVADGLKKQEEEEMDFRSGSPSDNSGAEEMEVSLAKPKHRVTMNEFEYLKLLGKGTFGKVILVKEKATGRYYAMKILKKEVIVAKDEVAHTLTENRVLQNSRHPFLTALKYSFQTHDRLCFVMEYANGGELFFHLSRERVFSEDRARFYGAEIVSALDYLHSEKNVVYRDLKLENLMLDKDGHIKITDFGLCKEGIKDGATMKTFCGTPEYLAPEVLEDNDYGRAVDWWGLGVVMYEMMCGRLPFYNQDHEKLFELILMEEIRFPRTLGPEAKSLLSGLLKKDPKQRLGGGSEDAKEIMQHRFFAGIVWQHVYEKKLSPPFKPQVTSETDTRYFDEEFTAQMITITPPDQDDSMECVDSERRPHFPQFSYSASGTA

SMILES: COc1cc(OC)c(-c2nc3cc(N4CCN(C)CC4)c(C#Cc4ccccc4)cc3[nH]2)cc1OC
- IC50 [1]: 6.16 µM
- IC50 at 48 h [2]: 6.59 µM
- IC50 [3]: 5.25 µM
- IC50 [4]: > 100 µM
- IC50 at 48 h [5]: 4.07 µM

SMILES: COc1cc(-c2nc3cc(N4CCOCC4)c(C#Cc4ccccc4F)cc3[nH]2)cc(OC)c1OC
- IC50 [1]: > 100 µM
- IC50 at 48 h [2]: 6.98 µM
- IC50 [3]: 8.6 µM
- IC50 [4]: 10.7 µM
- IC50 at 48 h [5]: 38.6 µM

SMILES: COc1cc(-c2nc3cc(N4CCOCC4)c(/C=C/C(=O)N(C)C)cc3[nH]2)cc(OC)c1OC
- IC50 [1]: > 100 µM
- IC50 at 48 h [2]: > 100 µM
- IC50 [3]: 14.5 µM
- IC50 [4]: 48.5 µM
- IC50 at 48 h [5]: 2.53 µM

SMILES: COc1cc(-c2nc3cc(N4CCN(C)CC4)c(C#Cc4ccccc4Cl)cc3[nH]2)cc(OC)c1OC
- IC50 [1]: 1.4 µM
- IC50 at 48 h [2]: 1.29 µM
- IC50 [3]: 1.73 µM
- IC50 [4]: 3.15 µM
- IC50 at 48 h [5]: 0.8 µM

SMILES: COc1cc(-c2nc3cc(N4CCOCC4)c(C#Cc4ccccc4Cl)cc3[nH]2)cc(OC)c1OC
- IC50 [1]: 7.81 µM
- IC50 at 48 h [2]: > 100 µM
- IC50 [3]: 10.4 µM
- IC50 [4]: 13.5 µM
- IC50 at 48 h [5]: 5.37 µM

SMILES: COc1ccc(C#Cc2cc3[nH]c(-c4cc(OC)c(OC)c(OC)c4)nc3cc2N2CCOCC2)cc1
- IC50 [1]: 26.8 µM
- IC50 at 48 h [2]: 8.82 µM
- IC50 [3]: 3.67 µM
- IC50 [4]: 9.11 µM
- IC50 at 48 h [5]: 2.18 µM

SMILES: COc1cc(-c2nc3cc(N4CCN(C)CC4)c(C#Cc4ccccc4F)cc3[nH]2)cc(OC)c1OC
- inhibition [6]: Dose-Dependent Effect
- mortality at 96 h, 25 µM [7]: 0%
- Activity [8]: 7.26%
- Activity [9]: 0%
- Activity [10]: 0%
- Activity [11]: inactive
- inhibition [12]: Active
- Activity [13]: inactive
- Activity [14]: 82.37%
- Activity [15]: 0%
- IC50 [1]: 3.38 µM
- mortality at 96 h, 200 µM [16]: 0%
- mortality at 96 h, 12.5 µM [17]: 0%
- IC50 at 48 h [2]: 21.1 µM
- Activity [18]: 16.33%
- Activity [19]: 66.56%
- Activity [20]: 82.4%
- mortality at 96 h, 400 µM [21]: 0%
- IC50 [3]: 5.03 µM
- Activity [22]: 16.43%
- Activity [23]: 82.7%
- inhibition [24]: Active
- Activity [25]: 0%
- inhibition [26]: Dose-Dependent Effect
- Activity [27]: inactive
- IC50 [4]: 7.24 µM
- mortality at 96 h, 100 µM [28]: 0%
- Activity [29]: 0%
- Activity [30]: 8.92%
- Activity [31]: 55.29%
- Activity [32]: 8.55%
- Activity [33]: 8.49%
- Activity [34]: 0%
- inhibition [35]: Active
- Activity [36]: 8.71%
- Activity [37]: 9.89%
- mortality at 96 h, 50 µM [38]: 0%
- Activity [39]: 15.86%
- Activity [40]: 28.37%
- IC50 at 48 h [5]: 24 µM

SMILES: Nc1cc(C(F)(F)F)c(-c2cc(N3CCOCC3)nc(N3CCOCC3)n2)cn1 [BUPARLISIB]
- IC50 [1]: 11.9 µM
- IC50 at 48 h [2]: 59.2 µM
- Activity [18]: 11.27%
- mortality at 96 h, 400 µM [21]: 0%
- IC50 [3]: 9.06 µM
- Activity [23]: 10.27%
- Activity [25]: 0%
- IC50 [4]: 0.74 µM
- Activity [31]: 62.27%
- Activity [39]: 7.83%
- Activity [40]: 28.47%
- IC50 at 48 h [5]: 6.11 µM

SMILES: COc1cc(-c2nc3cc(N4CCOCC4)c(C#Cc4ccccc4)cc3[nH]2)cc(OC)c1OC
- IC50 [1]: 7.07 µM
- IC50 at 48 h [2]: 9.09 µM
- IC50 [3]: 8.07 µM
- IC50 [4]: 6.45 µM
- IC50 at 48 h [5]: 3.73 µM

SMILES: COc1cc(-c2nc3cc(N4CCN(C)CC4)c(C#Cc4ccccc4)cc3[nH]2)cc(OC)c1OC
- IC50 [1]: 5.05 µM
- IC50 at 48 h [2]: 3.82 µM
- IC50 [3]: 4.96 µM
- IC50 [4]: 4.34 µM
- IC50 at 48 h [5]: 1.2 µM

SMILES: COc1cc(-c2nc3cc(N4CCOCC4)c(/C=C/C(=O)NC(C)(C)C)cc3[nH]2)cc(OC)c1OC
- IC50 [1]: 17 µM
- IC50 at 48 h [2]: 9.92 µM
- IC50 [3]: 4.21 µM
- IC50 [4]: 16 µM
- IC50 at 48 h [5]: 11.7 µM
